Laboratory results taken from US20080319042A1, “Compositions and methods for treatment of liver disease” (priority 2007, published 2008).
Values after ≈ are worked out from the molar mass of the structure shown.

Legend:
[1] = test system: hepatitis B surface antigen (HBsAg) production; assay: Anti-HBSAg Assay (Procedure A); type: cell-based, hepatitis B virus; conditions: 50 μg/ml
Protocol: (§1) The HBV-producing human hepatoblastoma cell line, Hep G2.2.15 was maintained in DMEM supplemented with 10% fetal bovine serum (FBS), 2 mM glutamine, 100 units/ml penicillin, 100 μg/ml streptomycin and 380 μg/ml gentamicin sulfate (G418) at 37° C. under 5% CO2 in air. The Hep G2 parental cells were grown under identical conditions in MEM with Earle's salts without G418.
(§2) Hep G2.2.15 cells (190 μl) were seeded onto microtiter plates at a concentration of 20×10^4 cells/ml. The cells incubated overnight in medium without G418 after which the compound compositions (10 μl) were added. Five 2-fold serial dilutions of extracts or fractions were tested starting at 200 μg/ml final culture concentration. PBS and 3TC (lamivudine) were included as the negative and positive controls, respectively. The treated cells were incubated at 37° C. for 4 days, after which the hepatitis B surface antigen (HBsAg) production in culture supernatants was assayed. The HBsAg released into the culture medium in the presence or absence of test samples was assayed using the BIO-RAD Genetic Systems HBsAg EIA 3.0 kit (Bio-Rad, Redmond, Wash.). This enzyme immunoassay is based on the capture of HBsAg on monoclonal antibody-coated plates. Four- and twelve-fold dilutions of all culture supernatants collected were assayed in triplicate wells of the EIA plate. The percentage inhibition of HBsAg secretion in the presence of the plant samples was calculated against the negative control (PBS).

[2] = test system: Hep G2.2.15 cells; assay: % Cell Viability in Anti-HBSAg Assay (Procedure A); type: cell-based, human; conditions: 50 μg/ml
Protocol: as §1, §2

[3] = test system: HCV JFH1; assay: HCV JFH1 infectivity assay (JFH1 Foci Reduction Assay); type: cell-based, hepatitis C virus; conditions: Hepatitis C virus; virus preincubated with compound; Huh 7 cells; 48 hr post infection; RD8, RD16, RD17, RD18 as glucosidase hydrolysis products; read-out: Estimated IC50 (inhibition of HCV JFH1 infectivity)
[4] = test system: HCV/HIV pseudovirions; assay: microbe, parasite or virus in culture; type: cell-based, hepatitis C virus; conditions: Hepatitis C virus, Huh-7, read-out: HCV Inhibition at 20 μg/mL

Compound	% Control HBSAg [1]	% Inhibition [1]	% Cell Viability [2]	IC50 [3]	inhibition at 20 µg/mL [4]
OCC1=CC(O)C2C=COC(O)C12 (mixture of isomers) [aucubin enzyme hydrolysate, reference compound]	96%	4%	100%	–	–
COC(=O)C1=CO[C@@H](O)[C@@H]2C(CO)=CC[C@H]12 [RD-4]	–	–	–	22 µg/mL (≈ 97.2 µM)	73.2%
